Measurements reported in paper PMC10037499, “High-Throughput Screen Reveals the Structure–Activity Relationship of the Antimicrobial Lasso Peptide Ubonodin” (ACS Central Science, 2023).
Where a SMILES comes first, the peptide text is derived from it.

Assays:
E. coli MC1061 = test: Spot dilution assay of E. coli producing the ubonodin variant from pUboABC; format: cell-based; conditions: variant in pUboABC backbone in E. coli MC1061, induction with 100 μM IPTG, ten-fold serial dilutions, biological duplicates
Summary of the method: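 E. coli MC1061 carrying the plasmids was grown at 37 °C in LB with 100 μg/mL ampicillin to OD600 0.3, then induced with 100 μM IPTG. Samples taken before induction and at later timepoints were PBS-washed, spotted as ten-fold dilutions on ampicillin/0.2% glucose LB plates, and imaged after 16 h at 37 °C.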

B. cenocepacia AU0756 = tested on: B. cenocepacia AU0756
Summary of the method: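 Ubonodin variants were tested by broth microdilution following CLSI guidelines against clinical Burkholderia cenocepacia isolates AU0756 and AU24362.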

[1] = tested on: RNA polymerase (RNAP) in E. coli MC1061; test: High-throughput growth-based screen with NGS (enrichment value) for RNA polymerase inhibition; format: cell-based; parameters: key to Experimental observation (enrichment observed in the screen): Dropout: Many variants inhibit RNAP so strongly that they cannot be detected by NGS after IPTG induction (referred to as dropout variants); conditions: Table S4; variants whose MICs were tested
Summary of the method: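 E. coli MC1061 carrying ubonodin single/double variant plasmid libraries was grown and induced with 10 µM or 100 µM IPTG; surviving colonies were sequenced by NGS. Enrichment value = log2 of variant frequency post-IPTG over frequency in the cloning transformation library; depletion indicates RNAP inhibition.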

Row | Compound | Inhibits Growth (E. coli MC1061) | B. cenocepacia AU0756 MIC (B. cenocepacia AU0756) | Experimental observation (enrichment observed in the screen) [1]
1 | CC[C@H](C)[C@@H]1NC(=O)[C@H](CO)NC(=O)CNC(=O)[C@H](CC(=O)O)NC(=O)CNC(=O)CNC(=O)CC[C@@H](C(=O)N[C@@H](Cc2ccc(O)cc2)C(=O)N[C@@H](Cc2ccccc2)C(=O)N[C@@H](CC(N)=O)C(=O)N[C@@H](CCCNC(=N)N)C(=O)N2CCC[C@H]2C(=O)N[C@@H](CC(N)=O)C(=O)N[C@@H](Cc2c[nH]cn2)C(=O)N[C@H](C(=O)N[C@@H](Cc2c[nH]cn2)C(=O)N[C@@H](CC(=O)O)C(=O)N[C@@H](Cc2c[nH]c3ccccc23)C(=O)N[C@@H](CCC(N)=O)C(=O)N[C@H](C(=O)N[C@@H](CCSC)C(=O)N[C@@H](CC(=O)O)C(=O)N[C@@H](CO)C(=O)NCC(=O)N[C@@H](Cc2ccc(O)cc2)C(=O)N[C@@H](Cc2ccc(O)cc2)C(=O)NCC(=O)O)[C@@H](C)CC)[C@@H](C)CC)NC(=O)[C@H](C)NC1=O [M14N] (HELM PEPTIDE1{G.G.D.G.S.I.A.E.Y.F.N.R.P.N.H.I.H.D.W.Q.I.M.D.S.G.Y.Y.G}$PEPTIDE1,PEPTIDE1,1:R1-8:R3$$$V2.0) | Yes | 0.5 to 2 µM | -4.7
2 | CC[C@H](C)[C@@H]1NC(=O)[C@H](CO)NC(=O)CNC(=O)[C@H](CC(=O)O)NC(=O)CNC(=O)CNC(=O)CC[C@@H](C(=O)N[C@@H](Cc2ccc(O)cc2)C(=O)N[C@@H](Cc2ccccc2)C(=O)N[C@@H](CC(N)=O)C(=O)N[C@@H](CCCNC(=N)N)C(=O)N2CCC[C@H]2C(=O)N[C@@H](CCSC)C(=O)N[C@@H](Cc2c[nH]cn2)C(=O)N[C@@H](CCC(=O)O)C(=O)N[C@@H](Cc2c[nH]cn2)C(=O)N[C@@H](CC(=O)O)C(=O)N[C@@H](Cc2c[nH]c3ccccc23)C(=O)N[C@@H](CCC(N)=O)C(=O)N[C@H](C(=O)N[C@@H](CCSC)C(=O)N[C@@H](C)C(=O)N[C@@H](CO)C(=O)NCC(=O)N[C@@H](Cc2ccc(O)cc2)C(=O)N[C@@H](Cc2ccc(O)cc2)C(=O)NCC(=O)O)[C@@H](C)CC)NC(=O)[C@H](C)NC1=O [I16E D23A] (HELM PEPTIDE1{G.G.D.G.S.I.A.E.Y.F.N.R.P.M.H.E.H.D.W.Q.I.M.A.S.G.Y.Y.G}$PEPTIDE1,PEPTIDE1,1:R1-8:R3$$$V2.0) | Yes | 2 to 8 µM | Dropout
3 | CC[C@H](C)[C@@H]1NC(=O)[C@H](CO)NC(=O)CNC(=O)[C@H](CC(=O)O)NC(=O)CNC(=O)CNC(=O)CC[C@@H](C(=O)N[C@@H](Cc2ccc(O)cc2)C(=O)N[C@@H](Cc2ccccc2)C(=O)N[C@@H](CC(N)=O)C(=O)N[C@@H](Cc2ccccc2)C(=O)N2CCC[C@H]2C(=O)N[C@@H](CCSC)C(=O)N[C@@H](Cc2c[nH]cn2)C(=O)N[C@H](C(=O)N[C@@H](Cc2c[nH]cn2)C(=O)N[C@@H](CC(=O)O)C(=O)N[C@@H](Cc2c[nH]c3ccccc23)C(=O)N[C@@H](CCC(N)=O)C(=O)N[C@H](C(=O)N[C@@H](CCSC)C(=O)N[C@@H](CC(=O)O)C(=O)N[C@@H](CO)C(=O)NCC(=O)N[C@@H](Cc2ccc(O)cc2)C(=O)N[C@@H](Cc2ccc(O)cc2)C(=O)NCC(=O)O)[C@@H](C)CC)[C@@H](C)CC)NC(=O)[C@H](C)NC1=O [R12F] (HELM PEPTIDE1{G.G.D.G.S.I.A.E.Y.F.N.F.P.M.H.I.H.D.W.Q.I.M.D.S.G.Y.Y.G}$PEPTIDE1,PEPTIDE1,1:R1-8:R3$$$V2.0) | Yes | 2 µM | -5.3
